From ChEMBL document CHEMBL1201862, “PubChem BioAssay data set” (2004)
Calls of active or inactive are those of the source.

Key:
HEK293 [1] = experiment: membrane integrity loss in HEK cells – cell-based, fluorescence, cytotoxicity control for IDE activator project, dose response (AID 588440); format: functional; conditions: Homo sapiens;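 note: cytotoxicity by LDH release measuring loss of membrane integrity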
Insulin-degrading enzyme [2] = molecular target: T1, Insulin-degrading enzyme (Homo sapiens, UniProt P14735); experiment: recombinant IDE activation, cell-free – biochemical, fluorescence polarization, counter-screen for IDE activator project, dose response (AID 588681)
T1 sequence (P14735 whole entry): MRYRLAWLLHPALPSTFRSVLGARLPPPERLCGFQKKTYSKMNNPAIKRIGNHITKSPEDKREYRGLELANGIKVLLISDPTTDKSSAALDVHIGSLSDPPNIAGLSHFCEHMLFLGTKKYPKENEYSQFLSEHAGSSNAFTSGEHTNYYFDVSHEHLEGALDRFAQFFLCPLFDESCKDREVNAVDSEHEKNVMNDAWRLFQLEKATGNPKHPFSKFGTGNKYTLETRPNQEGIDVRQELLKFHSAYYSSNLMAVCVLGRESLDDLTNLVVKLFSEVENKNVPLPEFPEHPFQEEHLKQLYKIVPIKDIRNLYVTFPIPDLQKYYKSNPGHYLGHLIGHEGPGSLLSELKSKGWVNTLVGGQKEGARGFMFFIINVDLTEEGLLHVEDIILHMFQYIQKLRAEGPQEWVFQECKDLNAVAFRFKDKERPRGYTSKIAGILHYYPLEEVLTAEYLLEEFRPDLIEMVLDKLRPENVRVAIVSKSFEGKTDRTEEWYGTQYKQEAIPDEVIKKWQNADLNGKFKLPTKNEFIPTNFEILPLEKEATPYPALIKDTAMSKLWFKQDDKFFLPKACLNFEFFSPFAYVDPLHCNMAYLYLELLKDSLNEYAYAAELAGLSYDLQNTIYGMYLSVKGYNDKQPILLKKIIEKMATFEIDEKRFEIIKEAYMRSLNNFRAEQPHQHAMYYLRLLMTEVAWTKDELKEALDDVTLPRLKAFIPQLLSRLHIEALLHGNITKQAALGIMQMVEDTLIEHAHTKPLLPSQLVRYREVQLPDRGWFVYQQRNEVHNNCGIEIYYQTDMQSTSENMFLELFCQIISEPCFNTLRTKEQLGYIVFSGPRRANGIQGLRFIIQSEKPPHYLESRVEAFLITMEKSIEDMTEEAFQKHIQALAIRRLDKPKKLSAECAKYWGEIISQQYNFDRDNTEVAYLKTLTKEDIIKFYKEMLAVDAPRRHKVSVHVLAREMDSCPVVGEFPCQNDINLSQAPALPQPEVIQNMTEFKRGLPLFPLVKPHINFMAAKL

Insulin-degrading enzyme [3] = molecular target: T1, Insulin-degrading enzyme; experiment: cellular IDE activation of Abeta substrate cleavage – fluorescence polarization, HEK cells, dose response (AID 588439); format: functional, cell-based
HEK293 [4] = experiment: optical interference in Abeta FP readout, dose response, artefact control for IDE activator project, biochemical, fluorescence polarization (AID 588442); format: functional, cell-based; conditions: Homo sapiens
[5] = microbe, parasite or virus in culture; format: functional; conditions: Mycobacterium tuberculosis
[6] = cytotoxicity toward MDA-MB-231 breast cancer cells – cell-based, CellTiter-Glo luminescence, cherry-pick, cytotoxicity control for RAD54 inhibitor project, dose response (AID 651692); format: functional
[7] = Luminescence Cell-Based Dose Retest to Confirm Inhibitors of Cancer Stem Cells. [Related pubchem assays (depositor defined):AID2717, AID2721]; format: functional; conditions: Homo sapiens
[8] = molecular target: T2, Ubiquitin-conjugating enzyme E2 N (Homo sapiens, UniProt P61088); format: functional;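 note: Dose-response confirmation in a TR-FRET assay detecting UBC13-driven polyubiquitin chain formation, inhibition measured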
T2 sequence (P61088 whole entry): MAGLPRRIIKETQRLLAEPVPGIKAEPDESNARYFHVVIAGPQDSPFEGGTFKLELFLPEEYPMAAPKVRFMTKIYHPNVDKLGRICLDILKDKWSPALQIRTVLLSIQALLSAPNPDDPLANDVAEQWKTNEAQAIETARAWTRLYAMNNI

[9] = molecular target: Glycogen synthase kinase-3 alpha (Homo sapiens, UniProt P49840); experiment: Inhibition of Human GSK-3 alpha Activity Measured in Biochemical System Using Microfluidics - 2063-06_Inhibitor_Dose_DryPowder_Activity_Set2. [Related pubchem assays (depositor defined):AID2709]
Chain of Glycogen synthase kinase-3 alpha (P49840 whole entry): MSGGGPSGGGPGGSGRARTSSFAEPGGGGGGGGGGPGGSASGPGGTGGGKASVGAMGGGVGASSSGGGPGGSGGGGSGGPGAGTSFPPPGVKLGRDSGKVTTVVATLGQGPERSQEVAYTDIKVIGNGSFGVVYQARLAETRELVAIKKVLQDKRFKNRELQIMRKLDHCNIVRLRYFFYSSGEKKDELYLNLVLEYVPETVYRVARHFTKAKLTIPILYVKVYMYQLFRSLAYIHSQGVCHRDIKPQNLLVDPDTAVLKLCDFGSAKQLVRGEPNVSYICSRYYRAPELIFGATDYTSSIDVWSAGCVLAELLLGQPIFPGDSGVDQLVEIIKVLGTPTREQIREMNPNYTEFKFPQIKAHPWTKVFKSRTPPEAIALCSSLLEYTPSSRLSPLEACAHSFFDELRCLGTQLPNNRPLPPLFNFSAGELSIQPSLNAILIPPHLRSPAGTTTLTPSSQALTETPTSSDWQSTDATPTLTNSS

[10] = molecular target: Glycogen synthase kinase-3 beta (Homo sapiens, UniProt P49841); experiment: Inhibition of Human GSK-3 beta Activity Measured in Biochemical System Using Microfluidics - 2063-05_Inhibitor_Dose_DryPowder_Activity_Set2. [Related pubchem assays (depositor defined):AID2709]
Chain of Glycogen synthase kinase-3 beta (P49841 whole entry): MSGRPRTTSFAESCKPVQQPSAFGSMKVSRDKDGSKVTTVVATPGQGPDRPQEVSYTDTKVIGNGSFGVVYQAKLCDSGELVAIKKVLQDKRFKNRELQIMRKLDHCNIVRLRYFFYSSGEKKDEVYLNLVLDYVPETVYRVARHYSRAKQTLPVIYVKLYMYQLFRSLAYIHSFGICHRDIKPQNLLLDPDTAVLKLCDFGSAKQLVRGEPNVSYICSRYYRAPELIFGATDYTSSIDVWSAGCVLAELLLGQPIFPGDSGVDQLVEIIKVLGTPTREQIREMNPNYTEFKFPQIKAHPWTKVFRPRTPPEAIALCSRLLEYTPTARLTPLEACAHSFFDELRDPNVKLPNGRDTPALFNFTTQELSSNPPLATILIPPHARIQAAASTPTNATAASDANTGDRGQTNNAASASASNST

[11] = inhibitors of non-replicating M. tuberculosis, dose response, luciferase, dry powder (AID 651620); format: functional; conditions: Mycobacterium tuberculosis
[12] = inhibitors of non-replicating M. tuberculosis, dose response, luciferase, dry powder (AID 651619); format: functional; conditions: Mycobacterium tuberculosis
Streptokinase A = molecular target: T3, Streptokinase A (Streptococcus pyogenes serotype M1, UniProt P10520); experiment: viability-normalized secreted streptokinase activity reduction – plasminogen activation absorbance, OD405, dose response (AID 1914); format: functional, Streptococcus pyogenes M1 GAS;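 note: secreted streptokinase activity via plasminogen activation per viability signal from cell pellet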
T3 sequence (P10520 whole entry): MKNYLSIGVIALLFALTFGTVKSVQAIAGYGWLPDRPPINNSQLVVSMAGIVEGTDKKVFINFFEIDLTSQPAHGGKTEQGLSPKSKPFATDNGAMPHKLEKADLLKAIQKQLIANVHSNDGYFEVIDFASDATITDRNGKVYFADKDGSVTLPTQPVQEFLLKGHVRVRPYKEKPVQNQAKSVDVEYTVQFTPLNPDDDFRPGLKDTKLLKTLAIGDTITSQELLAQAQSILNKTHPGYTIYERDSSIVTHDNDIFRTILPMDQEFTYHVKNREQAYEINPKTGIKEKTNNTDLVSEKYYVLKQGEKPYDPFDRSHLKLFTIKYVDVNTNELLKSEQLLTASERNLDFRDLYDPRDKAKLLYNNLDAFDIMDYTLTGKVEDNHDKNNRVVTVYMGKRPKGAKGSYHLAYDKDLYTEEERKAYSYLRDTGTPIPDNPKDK

[13] = Counterscreen for antagonists of the orexin 1 receptor (OX1R; HCRTR1): Fluorescence-based cell-based high throughput dose response assay to identify antagonists of the parental CHO cell line. [Related pubchem assays (depositor defined):AID434989, AID435008, AID463079, AID485270, AID492963, AID492964, AID492965, AID493232, AID504699, AID504701]; format: functional
[14] = tested on: Streptococcus sp. 'group A'; experiment: Streptococcus pyogenes SK(-)GAS viability under kanamycin – luminescence, BacTiterGlo, confirmation, counter-screen for streptokinase expression inhibitor project, dose response (AID 1900); format: functional, organism-based
Orexin receptor type 2 [15] = molecular target: T4, Orexin receptor type 2 (Homo sapiens, UniProt O43614); experiment: Counterscreen assay for antagonists of the orexin 1 receptor (OX1R; HCRTR1): Homogeneous Time Resolved Fluorescence (HTRF)-based cell-based dose response assay for antagonists of the orexin 2 receptor (OX2R; HCRTR2), run by assay provider.; format: functional
T4 sequence (O43614 whole entry): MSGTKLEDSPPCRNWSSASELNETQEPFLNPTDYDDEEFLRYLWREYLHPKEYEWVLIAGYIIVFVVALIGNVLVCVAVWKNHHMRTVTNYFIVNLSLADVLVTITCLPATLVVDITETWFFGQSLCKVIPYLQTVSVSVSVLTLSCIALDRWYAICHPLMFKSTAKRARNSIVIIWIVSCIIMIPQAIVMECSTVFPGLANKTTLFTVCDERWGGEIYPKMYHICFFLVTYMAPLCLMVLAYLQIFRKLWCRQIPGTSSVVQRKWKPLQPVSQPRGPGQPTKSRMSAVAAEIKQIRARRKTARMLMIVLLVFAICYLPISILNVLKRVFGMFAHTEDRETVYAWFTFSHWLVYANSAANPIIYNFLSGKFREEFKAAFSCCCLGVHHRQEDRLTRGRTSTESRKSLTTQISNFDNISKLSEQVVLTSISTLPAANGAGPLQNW

Streptococcus = experiment: GAS UMAA2166 growth inhibition – luminescence, BacTiterGlo, counter-screen for streptokinase expression inhibitor project, dose response (AID 1915); format: functional, organism-based;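 note: potency for reduction of bacterial viability or growth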
[16] = viability loss in HEK293 cells – cell-based, plate reader, cherry-picked samples, cytotoxicity control, dose response (AID 743446); format: functional
[17] = A549 cell cytotoxicity, dose response, cytotoxicity control, plate reader, cherry-pick, antagonist series (AID 743412); format: functional, cell-based
Orexin receptor type 2 [18] = molecular target: T4, Orexin receptor type 2; experiment: Counterscreen assay for antagonists of the orexin 1 receptor (OX1R; HCRTR1): Fluorescence-based cell-based dose response assay for antagonists of the orexin 2 receptor (OX2R; HCRTR2), run by assay provider.; format: functional
[19] = molecular target: T5, Orexin/Hypocretin receptor type 1 (Homo sapiens, UniProt O43613); experiment: Fluorescence-based cell-based high throughput dose response assay for antagonists of the orexin 1 receptor (OX1R; HCRTR1). [Related pubchem assays (depositor defined):AID434989, AID435008, AID463079, AID485270, AID492963, AID492964, AID492965, AID493232, AID504717, AID504718]; format: functional
T5 sequence (O43613 whole entry): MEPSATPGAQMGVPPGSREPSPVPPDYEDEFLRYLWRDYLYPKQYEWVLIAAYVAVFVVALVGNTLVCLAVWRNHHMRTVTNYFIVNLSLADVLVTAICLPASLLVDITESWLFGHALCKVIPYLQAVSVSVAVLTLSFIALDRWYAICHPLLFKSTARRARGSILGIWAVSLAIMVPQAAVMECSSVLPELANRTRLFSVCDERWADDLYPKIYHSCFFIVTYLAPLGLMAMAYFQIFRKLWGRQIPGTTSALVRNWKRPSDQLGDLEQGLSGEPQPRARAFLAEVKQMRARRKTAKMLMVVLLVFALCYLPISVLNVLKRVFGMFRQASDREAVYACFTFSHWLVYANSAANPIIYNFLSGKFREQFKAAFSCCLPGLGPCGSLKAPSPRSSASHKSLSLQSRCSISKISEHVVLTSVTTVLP

CAAX prenyl protease 2 = molecular target: T6, CAAX prenyl protease 2 (Saccharomyces cerevisiae S288c, UniProt Q03530); format: biochemical
T6 sequence (Q03530 whole entry): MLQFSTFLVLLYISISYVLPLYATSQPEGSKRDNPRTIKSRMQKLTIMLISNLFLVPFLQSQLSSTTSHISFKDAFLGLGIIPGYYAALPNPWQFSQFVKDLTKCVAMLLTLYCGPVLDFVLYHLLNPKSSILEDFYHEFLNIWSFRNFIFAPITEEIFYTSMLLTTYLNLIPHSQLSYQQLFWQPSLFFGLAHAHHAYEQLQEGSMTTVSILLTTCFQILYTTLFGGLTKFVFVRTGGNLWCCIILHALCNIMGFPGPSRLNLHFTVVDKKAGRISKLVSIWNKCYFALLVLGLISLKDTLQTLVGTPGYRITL

[20] = molecular target: T5, Orexin/Hypocretin receptor type 1; experiment: Homogeneous Time Resolved Fluorescence (HTRF)-based cell-based high throughput dose response assay for antagonists of the orexin 1 receptor (OX1R; HCRTR1). [Related pubchem assays (depositor defined):AID434989, AID435008, AID463079, AID485270, AID492963, AID492964, AID492965, AID493232, AID504717, AID504718]; format: functional
[21] = toxicity toward HepG2 liver cells – cell-based, plate reader, cherry-pick, antagonist series, cytotoxicity control, dose response (AID 743416); format: functional
CHO-K1 = experiment: Counterscreen for antagonists of the orexin 1 receptor (OX1R; HCRTR1): Homogeneous time resolved fluorescence (HTRF)-based cell-based dose response assay to identify antagonists of the parental CHO-K1 cell line. [Related pubchem assays (depositor defined):AID434989, AID435008, AID463079, AID485270, AID492963, AID492964, AID492965, AID493232, AID504699, AID504701]; format: functional; conditions: Cricetulus griseus;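 note: potency for inhibition of ATP-stimulated IP1 production as antagonists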
[22] = blockade of melanocortin 4 receptor signaling – cell-based, plate reader, cherry pick, counter-screen for LGR2 antagonist project, dose response (AID 743444); format: functional;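 note: transfected HEK 293 cells stimulated with alpha-MSH peptide; potency of inhibitors of the alpha-MSH evoked signal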

SMILES	IC50 (HEK293 [1])	EC50 (Insulin-degrading enzyme [2])	EC50 (Insulin-degrading enzyme [3])	EC50 (HEK293 [4])	AC50 [9]	AC50 [10]	IC50 [13]	IC50 (Orexin receptor type 2 [15])	IC50 (Orexin receptor type 2 [18])	IC50 [19]	IC50 [20]	IC50 (CHO-K1)	further results
O=C(NCC1CC1)c1onc(CSc2ccc(F)c(F)c2)c1C(=O)NCC1CC1	> 89.3 µM (inactive)	> 54.7 µM (inactive)	> 54.7 µM (inactive)	> 54.7 µM (inactive)	–	–	–	–	–	–	–	–	–
Cc1ccc(C)c(N2CCN(C(=S)Nc3ccc4nc(N5CCN(C)CC5)cc(C)c4c3)CC2)c1	18 µM (inactive)	> 54.7 µM (inactive)	> 54.7 µM (inactive)	> 55.9 µM (inactive)	–	–	–	–	–	–	–	–	CC50 [5]: 17.1 µM (active); AC50 [6]: 34.8 µM (active); AC50 [7]: 13.3 µM (active); IC50 [8]: > 20 µM (inactive)
Nc1nc(NCCCN2CCOCC2)nc(Nc2cccc(Cl)c2)c1[N+](=O)[O-]	–	–	–	–	0.429 µM (active)	0.253 µM (active)	–	–	–	–	–	–	–
Fc1ccc(CSc2nnc(-c3ccncc3)o2)cc1	–	–	–	–	3.37 µM (active)	0.578 µM (active)	–	–	–	–	–	–	IC90 [11]: 4 µM (active); IC90 [12]: 4 µM (active)
O=[N+]([O-])c1ccc(-c2c[nH]c(SC(c3ccccc3)c3ccccc3)n2)cc1	–	–	–	–	–	–	32.6 µM (inactive)	> 50 µM (inactive)	29.7 µM (inactive)	7.34 µM (active)	5.72 µM (active)	> 66.2 µM (inactive)	EC50 (Streptokinase A): 15.2 µM (active); EC50 [14]: 6.07 µM (active); EC50 (Streptococcus): > 150 µM (not active); AC50 [16]: 22.2 µM (active); AC50 [17]: 19 µM (active); AC50 (CAAX prenyl protease 2): 2.05 µM (active); AC50 [21]: 19.1 µM (active); AC50 [22]: 7.88 µM (active)
O=[N+]([O-])c1cccc(-c2nc(-c3cccs3)c(-c3cccs3)[nH]2)c1	–	–	–	–	–	–	> 49.8 µM (inactive)	3.2 µM (active)	28.8 µM (inactive)	> 5.53 µM (active)	6.65 µM (active)	> 66.2 µM (inactive)	–
